The text below walks through data of paper PMC12684391, “Mechanistic insights into the monotherapy and combination potential of FEN1 inhibition in cancer therapy” (Nucleic Acids Research, 2025).

For assay [1], the target named is T1, FEN1(1-380)-6His (Homo sapiens, UniProt P39748).
T1 construct: FEN1(1-380)-6His was immobilized on a CM5 chip; made in house; host or cells: Escherichia coli
The experiment in a line: Surface plasmon resonance on immobilized FEN1. Format: binding. Conditions: SPR, 25°C, mean of n = 4 surfaces; for Kd: 1:1 Langmuir model; for residence time: read-out: τ (residence time). The method, then:
The kinetic parameters of the interaction between FEN1 and small molecules were assessed by surface plasmon resonance (SPR). FEN1(1-380)-6His was immobilized on a CM5 chip (Series S, Cytiva, Uppsala, Sweden) via standard amine coupling procedure at 25°C. Prior to immobilization, the carboxymethylated surface of the CM5 chip was activated with 400 mM 1-ethyl-3-(3-dimethylaminopropyl)-carbodiimide and 100 mM N-hydroxysuccinimide for 7 min. FEN1 was diluted to 10 µg/ml in 10 mM Bis–Tris pH 6.50 and injected in the presence of 2 µM of an active site binder on the CM5 chip for 3 or 4 min resulting in immobilization levels between 1300 and 3100 response units (RU). The remaining activated carboxymethylated groups were blocked with a 7 min injection of 1 M ethanolamine pH 8.50. HBS-N pH 7.40 was used as the background buffer during immobilization.
All compounds were prediluted in DMSO, diluted 1:50 in running buffer (20 mM Tris–HCl pH 7.50, 100 mM KCl, 1 mM DTT, 5 mM MgCl2, 0.05% Tween-20, and 2% DMSO) and injected at 10 different concentrations using two-fold dilution series. A DMSO solvent correction (10 steps, 1.4%–2.8%) was performed to account for variations in bulk signal and to achieve high-quality data. Interaction analysis cycles consisted of a 150 s sample injection (30 μl/min; association phase) followed by 300 s of buffer flow (dissociation phase).
Experiments were performed on a Biacore 8K+ (Cytiva, Uppsala, Sweden) at 25°C and the interactions were evaluated using the Biacore Insight evaluation software (version 5.0). All sensorgrams were processed by first subtracting the signal of the control surface (reference spot) from the binding response, followed by subtraction of the buffer blank injection from the reaction spot (double referencing). All datasets were fitted to a simple 1:1 Langmuir interaction model to determine the kinetic rate constants (using as offset RI = const = 0 and for Rmax either global or local, if the surface generation was not complete between consecutive cycles). Reported kinetic parameters are mean values from four independent FEN1 surfaces (n = 4).
For orientation: In SPR one partner is held on a chip, and binding of the other changes the refractive index at the surface.

For assay [2], the system named is DLD-1 BRCA2KO cells. The experiment in a line: Cell viability assay (AlamarBlue), 7 days. It is filed as cell-based. On the procedure:
Cells were seeded in 96-well plates and treated the day after seeding with a serial dilution of compounds in technical duplicates. After 7 days, viability was analyzed using the AlamarBlue reagent (BioRad). AlamarBlue was added in an amount equal to 10% of the volume in the well and after a 4–6 h incubation viability was determined by fluorescence analysis using a standard plate reader. Fluorescence was normalized to vehicle treated control for each cell line, and data were fitted in Genedata Screener to generate compound sensitivity curves and determine IC50 or EC50 (half maximal inhibitory/effective concentration) values as indicated.

In assay [3] the test system is MMEJ (resection independent reporter). The experiment in a line: Extrachromosomal MMEJ reporter assay, resection independent, HEK-293. Format: cell-based. The method, then:
MMEJ resection-independent and MMEJ resection-dependent reporter assays performed as previously described. In brief, HEK-293 cells were resuspended in supplemented SF nucleofection solution (Lonza) containing nanoluciferase DNA substrate and Firefly luciferase plasmid (Promega) at a ratio of 100 μl SF: 1500 ng nanoluciferase substrate: 1000 ng Firefly plasmid: ∼1.5 × 10^6 cells. Cells were electroporated and recovered into fresh media before seeding into a 96-well plate pre-dosed with compounds and DMSO control.
After 24 h, Firefly and NanoLuc levels were detected using the Nano-Glo® Dual-Luciferase® Reporter Assay system (Promega) as per the manufacturer’s instructions. NanoLuc luminescence (reporter) was normalized to Firefly luminescence (control) to determine substrate repair. Percentage repair was calculated relative to the DMSO control.
(In general: A reporter such as luciferase makes a cellular process visible.)

Assay [4] deals with DLD-1, DLD-1 BRCA2KO, SUM149PT, MDA-MB-436 cells. The experiment in a line: Cell cycle analysis by immunofluorescence (PCNA/DAPI). Format: cell-based. On the procedure: Cells were seeded at a density of 10 000 cells per well in 100 μl of media in collagen-coated 96-well plates (Revvity, #6055700). Twenty-four hours after seeding, cells were treated with the indicated doses of MSC2798778, MSC2798781, or DMSO (Apollo Scientific, BID1200) using a D300e digital dispenser (Tecan) for 24 h. Cells were washed with PBS and fixed in 4% PFA (ChemCruz, sc-281692) for 10 min at room temperature.
For immunofluorescence staining, cells were washed with PBS then blocked and permeabilized with PBS containing 0.5% BSA and 0.5% Triton X-100 (blocking buffer) for 45 min at room temperature. Cells were then stained with the indicated markers by incubation with primary antibodies (Supplementary Table S5) diluted in the blocking buffer, overnight at 4°C. […]
• Foci were quantified by setting up a contrast threshold higher than the background signal. • pKAP1 positive cells were selected using a mean intensity threshold. • Cell cycle analysis was performed by defining gates on a bivariate plot of DAPI total nuclear intensity and PCNA mean nuclear intensity. PCNA positive cells were scored as cells in S-phase. G1 and G2/M cells were scored as PCNA negative cells with differential DNA content. • PARylation and replication levels were quantified by measuring the mean nuclear fluorescence intensity, in PCNA positive cells, of poly/mono-ADP ribosylation and EdU, respectively.

T1 sequence (P39748 whole entry): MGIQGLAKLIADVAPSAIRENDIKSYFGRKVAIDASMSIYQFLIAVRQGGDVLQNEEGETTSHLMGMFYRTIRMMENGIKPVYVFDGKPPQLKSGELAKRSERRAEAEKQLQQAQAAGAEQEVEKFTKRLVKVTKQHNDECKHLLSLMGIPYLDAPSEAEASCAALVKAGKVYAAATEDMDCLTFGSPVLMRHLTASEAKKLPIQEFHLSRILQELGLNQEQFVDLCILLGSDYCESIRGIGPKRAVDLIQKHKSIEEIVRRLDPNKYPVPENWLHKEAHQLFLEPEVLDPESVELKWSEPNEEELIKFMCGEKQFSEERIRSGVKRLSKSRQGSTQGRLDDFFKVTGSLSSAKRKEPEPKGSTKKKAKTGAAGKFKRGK

In the case of `C[C@H](Oc1nn2c(c(O)c1=O)C(=O)N1CCOC[C@@H]1C2)c1ccc2ccc(Cl)cc2c1` [MSC778], in assay [1], binding was characterised by a dissociation constant (Kd) of 0.0029 µM, the koff was found to be 0.00052 s⁻¹, the kon stood at 180000 M⁻¹ s⁻¹ and the residence time turned out to be 32 min. The same molecule returned an EC50 in assay [2] (Homo sapiens, 168 h, DLD-1 BRCA2KO, 7 days, AlamarBlue, N = 3) of 0.22 µM. Moreover, in assay [2] (more sensitive than isogenic DLD-1 wild-type), the “Sensitivity of DLD-1 BRCA2KO relative to parental DLD-1 cells” value is given as approximately 10 fold. Besides, the EC50 in assay [3] (Homo sapiens, HEK293, resection independent reporter, HEK-293, 24 h, read-out: MMEJ inhibition EC50) is 1 µM. The “MMEJ potency relative to ART558” value in assay [3] (lower potency than ART558, both reporters) is given as 10–20 fold. Further, in assay [4] (24 h treatment, all four cell lines), the Cell cycle effect result was “titratable S-phase accumulation”.

In the case of `C[C@@H](Oc1nn2c(c(O)c1=O)C(=O)N1CCOC[C@@H]1C2)c1ccc2ccc(Cl)cc2c1` [MSC781], in assay [1], the Kd was 0.023 µM, the koff was 0.0034 s⁻¹, the kon was found to be 150000 M⁻¹ s⁻¹ and the residence time worked out at 4.8 min. In addition, in assay [2] (DLD-1 and DLD-1 BRCA2KO, 7 days, AlamarBlue, compared with MSC778), the “Sensitivity of cell lines (viability)” value is on record as “much less sensitive”. The “Inhibited MMEJ” value in assay [3] (both reporters, HEK-293) is “not”. The Cell cycle effect result in assay [4] (3 µM, HRD panel and EWS panel (U-2 OS, RD-ES, MHH-ES-1)) is on record as “not perturbed”.

In general, Kd refers to the constant that tells how readily two partners part at equilibrium. The low end stands for higher affinity, the high end for lower affinity. One may read the koff as a measure of how fast the partners let go of each other. Read a low koff as slow dissociation. As usually defined, the kon is the second-order rate constant of association. A high value points to fast association. Usually residence time stands for the mean lifetime of the complex, commonly the reciprocal of the off-rate. The term EC50 denotes the concentration that produces a half-maximal response.
